Columns and labels:
Caspase-1 (Mus musculus) = target: T1, Caspase-1 (Mus musculus) (UniProt P29452); assay: (§1) Inhibition of mouse recombinant ICE assessed as ratio of irreversible rate constant K3 to dissociation constant of the reversible binding step Ki pre-incubated for 60 mins with Acetyl-Tyr-Val-Ala-Asp-amino-4-methylcoumarin substrate followed by enzyme addition by fluorescence based assay
T1 sequence (whole entry): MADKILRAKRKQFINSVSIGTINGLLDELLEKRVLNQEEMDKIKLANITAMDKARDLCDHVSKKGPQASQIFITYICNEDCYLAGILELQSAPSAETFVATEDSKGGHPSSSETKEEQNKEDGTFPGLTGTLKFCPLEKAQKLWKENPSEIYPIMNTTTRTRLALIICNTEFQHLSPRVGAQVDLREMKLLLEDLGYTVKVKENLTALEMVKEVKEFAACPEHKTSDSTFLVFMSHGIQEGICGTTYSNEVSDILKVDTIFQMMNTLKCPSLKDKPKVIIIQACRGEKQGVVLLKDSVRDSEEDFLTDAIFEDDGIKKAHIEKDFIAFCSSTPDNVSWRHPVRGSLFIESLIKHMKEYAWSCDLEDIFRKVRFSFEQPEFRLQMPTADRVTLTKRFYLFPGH

Caspase-3 (Homo sapiens) = target: T2, Caspase-3 (Homo sapiens) (UniProt P42574); assay: as §1, with “of” for “of mouse”, “CPP32 (unknown origin)” for “ICE”
T2 sequence (whole entry): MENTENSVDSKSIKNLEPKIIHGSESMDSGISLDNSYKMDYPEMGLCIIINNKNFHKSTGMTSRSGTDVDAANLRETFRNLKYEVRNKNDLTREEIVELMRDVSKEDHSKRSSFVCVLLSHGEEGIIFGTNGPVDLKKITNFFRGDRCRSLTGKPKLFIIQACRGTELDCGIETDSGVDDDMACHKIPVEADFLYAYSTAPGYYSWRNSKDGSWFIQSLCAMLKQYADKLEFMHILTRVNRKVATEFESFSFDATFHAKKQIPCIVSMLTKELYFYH

Caspase-6 (Homo sapiens) = target: T3, Caspase-6 (Homo sapiens) (UniProt P55212); assay: Inhibition of recombinant MCH2 (unknown origin) assessed as ratio of irreversible rate constant K3 to dissociation constant of the reversible binding step Ki pre-incubated for 60 mins with Acetyl-Tyr-Val-Ala-Asp-amino-4-methylcoumarin substrate followed by enzyme addition by fluorescence based assay
T3 sequence (whole entry): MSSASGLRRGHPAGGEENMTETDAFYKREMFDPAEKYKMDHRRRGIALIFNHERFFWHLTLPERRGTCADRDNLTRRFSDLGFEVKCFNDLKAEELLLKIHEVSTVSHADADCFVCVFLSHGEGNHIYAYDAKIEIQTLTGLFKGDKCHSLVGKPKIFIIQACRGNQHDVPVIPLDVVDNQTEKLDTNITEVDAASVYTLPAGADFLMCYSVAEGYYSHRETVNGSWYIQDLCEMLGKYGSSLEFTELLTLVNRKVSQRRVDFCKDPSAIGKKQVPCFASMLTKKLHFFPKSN

Caspase-8 (Homo sapiens) = Caspase-8 (Homo sapiens) (UniProt Q14790); assay: Inhibition of recombinant MCH5 (unknown origin) assessed as ratio of irreversible rate constant K3 to dissociation constant of the reversible binding step Ki pre-incubated for 60 mins with Acetyl-Tyr-Val-Ala-Asp-amino-4-methylcoumarin substrate followed by enzyme addition by fluorescence based assay
Sequence of Caspase-8 (Homo sapiens) (Q14790 217-374 limits assumed): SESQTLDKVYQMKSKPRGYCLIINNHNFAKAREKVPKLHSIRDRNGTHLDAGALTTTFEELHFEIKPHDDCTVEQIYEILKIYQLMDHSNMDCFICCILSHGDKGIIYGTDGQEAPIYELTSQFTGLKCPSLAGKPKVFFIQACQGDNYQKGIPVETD
Sequence of Caspase-8 (Homo sapiens) (Q14790 385-479 limits assumed): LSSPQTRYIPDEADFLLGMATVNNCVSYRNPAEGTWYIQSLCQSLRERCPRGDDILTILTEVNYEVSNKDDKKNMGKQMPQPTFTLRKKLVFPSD

SMILES	Ratio (Caspase-1 (Mus musculus)) [M⁻¹ s⁻¹]	Ratio (Caspase-3 (Homo sapiens)) [M⁻¹ s⁻¹]	Ratio (Caspase-6 (Homo sapiens)) [M⁻¹ s⁻¹]	Ratio (Caspase-8 (Homo sapiens)) [M⁻¹ s⁻¹]
CC(C)[C@H](NC(=O)C(=O)Nc1ccccc1C(C)(C)C)C(=O)N[C@@H](CC(=O)O)C(=O)COc1c(F)c(F)cc(F)c1F	2.05e+06	27700	112000	1.16e+06
C[C@H](NC(=O)C(=O)Nc1ccccc1Cl)C(=O)N[C@@H](CC(=O)O)C(=O)COC(=O)c1c(Cl)cccc1Cl	278000 to 1.94e+06	323000 to 842000	281000 to 745000	396000 to 1.63e+06
C[C@H](NC(=O)C(=O)NC12CC3CC(CC(C3)C1)C2)C(=O)N[C@@H](CC(=O)O)C(=O)COP(=O)(c1ccccc1)c1ccccc1	27600 to 242000	149000 to 243000	124000 to 445000	50400 to 643000
CC(C)[C@H](NC(=O)C(=O)NCc1ccccc1)C(=O)N[C@@H](CC(=O)O)C(=O)COc1c(F)c(F)cc(F)c1F	1.8e+06	21000	16600	472000
C[C@H](NC(=O)C(=O)Nc1ccccc1F)C(=O)N[C@@H](CC(=O)O)C(=O)COC(=O)c1c(Cl)cccc1Cl	172000	68900	129000	155000
C[C@H](NC(=O)C(=O)Nc1ccccc1-c1ccccc1)C(=O)N[C@@H](CC(=O)O)C(=O)COP(=O)(c1ccccc1)c1ccccc1	345000	243000	317000	207000
CC(C)[C@H](NC(=O)C(=O)NC12CC3CC(CC(C3)C1)C2)C(=O)N[C@@H](CC(=O)O)C(=O)COc1c(F)c(F)cc(F)c1F	184000	6330	10700	59900
CC(C)[C@H](NC(=O)C(=O)Nc1ccccc1F)C(=O)N[C@@H](CC(=O)O)C(=O)COc1c(F)c(F)cc(F)c1F	58500	5560	11200	49600
C[C@H](NC(=O)C(=O)Nc1ccccc1C(C)(C)C)C(=O)N[C@@H](CC(=O)O)C(=O)COP(=O)(c1ccccc1)c1ccccc1	159000 to 625000	327000 to 395000	275000 to 484000	282000 to 589000
COc1ccccc1NC(=O)C(=O)N[C@H](C(=O)N[C@@H](CC(=O)O)C(=O)COc1c(F)c(F)cc(F)c1F)C(C)C	2.07e+06	10800	61500	2.68e+06
C[C@H](NC(=O)C(=O)Nc1cc(C(C)(C)C)ccc1C(C)(C)C)C(=O)N[C@@H](CC(=O)O)C(=O)COC(=O)c1c(Cl)cccc1Cl	289000	189000	146000	306000
C[C@H](NC(=O)C(=O)Nc1ccccc1Cc1ccccc1)C(=O)N[C@@H](CC(=O)O)C(=O)COc1c(F)c(F)cc(F)c1F	323000	3430	5850	154000
C[C@H](NC(=O)C(=O)Nc1cccc2c1CCCC2)C(=O)N[C@@H](CC(=O)O)C(=O)COC(=O)c1c(Cl)cccc1Cl	16900 to 1.76e+07	149000 to 260000	126000 to 264000	21200 to 1.92e+06
C[C@H](NC(=O)C(=O)Nc1cc(C(F)(F)F)ccc1N1CCOCC1)C(=O)N[C@@H](CC(=O)O)C(=O)COP(=O)(c1ccccc1)c1ccccc1	369000	100000	98500	441000
C[C@H](NC(=O)C(=O)Nc1ccccc1-c1ccccc1)C(=O)N[C@@H](CC(=O)O)C(=O)COc1ccccc1F	167000	55600	35000	37800
CC(C)[C@H](NC(=O)C(=O)NC1CCCc2ccccc21)C(=O)N[C@@H](CC(=O)O)C(=O)COc1c(F)c(F)cc(F)c1F (stereo partly drawn)	2.32e+06	98600	160000	456000

SMILES	Ratio (Caspase-1 (Mus musculus)) [M⁻¹ s⁻¹]	Ratio (Caspase-3 (Homo sapiens)) [M⁻¹ s⁻¹]	Ratio (Caspase-6 (Homo sapiens)) [M⁻¹ s⁻¹]	Ratio (Caspase-8 (Homo sapiens)) [M⁻¹ s⁻¹]
C[C@H](NC(=O)C(=O)Nc1cc(C(F)(F)F)ccc1N1CCCC1)C(=O)N[C@@H](CC(=O)O)C(=O)COP(=O)(c1ccccc1)c1ccccc1	1.5e+06	78600	202000	933000
CC(C)[C@H](NC(=O)C(=O)Nc1ccccc1)C(=O)N[C@@H](CC(=O)O)C(=O)COc1c(F)c(F)cc(F)c1F	1.49e+06	36000	25500	598000
CC(C)[C@H](NC(=O)C(=O)Nc1ccccc1Cc1ccccc1)C(=O)N[C@@H](CC(=O)O)C(=O)COc1c(F)c(F)cc(F)c1F	344000	54800	25300	105000
C[C@H](NC(=O)C(=O)NC12CC3CC(CC(C3)C1)C2)C(=O)N[C@@H](CC(=O)O)C(=O)COC(=O)c1c(Cl)cccc1Cl	46000 to 126000	20500 to 165000	21100 to 143000	18700 to 92600
C[C@H](NC(=O)C(=O)Nc1ccccc1F)C(=O)N[C@@H](CC(=O)O)C(=O)COc1c(F)c(F)cc(F)c1F	339000	478000	212000	170000
C[C@H](NC(=O)C(=O)NC1CCCCC1)C(=O)N[C@@H](CC(=O)O)C(=O)COC(=O)c1c(Cl)cccc1Cl	2.02e+06	1.17e+06	655000	2.14e+06
C[C@H](NC(=O)C(=O)Nc1ccc(F)cc1)C(=O)N[C@@H](CC(=O)O)C(=O)COP(=O)(c1ccccc1)c1ccccc1	956000	268000	424000	2.3e+06
C[C@H](NC(=O)C(=O)Nc1ccccc1I)C(=O)N[C@@H](CC(=O)O)C(=O)COC(=O)c1c(Cl)cccc1Cl	90100 to 1.27e+06	67600 to 942000	28200 to 360000	337000 to 551000
CC(C)[C@H](NC(=O)C(=O)Nc1ccccc1Br)C(=O)N[C@@H](CC(=O)O)C(=O)COc1c(F)c(F)cc(F)c1F	1.08e+06	276000	230000	1.3e+06
CC(C)[C@H](NC(=O)C(=O)Nc1ccccc1-c1ccccc1)C(=O)N[C@@H](CC(=O)O)C(=O)COc1c(F)c(F)cc(F)c1F	127000	25400	31700	65300
C[C@H](NC(=O)C(=O)NCCc1ccccc1)C(=O)N[C@@H](CC(=O)O)C(=O)COP(=O)(c1ccccc1)c1ccccc1	1.23e+06	169000	131000	667000
C[C@H](NC(=O)C(=O)Nc1cccc2c1CCCC2)C(=O)N[C@@H](CC(=O)O)C(=O)COP(=O)(c1ccccc1)c1ccccc1	315000 to 905000	139000 to 157000	120000 to 132000	71800 to 1.15e+06
CC(C)[C@H](NC(=O)C(=O)Nc1ccccn1)C(=O)N[C@@H](CC(=O)O)C(=O)COc1c(F)c(F)cc(F)c1F	36000	9850	11600	19500
CC(C)[C@H](NC(=O)C(=O)Nc1ccncc1)C(=O)N[C@@H](CC(=O)O)C(=O)COc1c(F)c(F)cc(F)c1F	912	511	5580	1140
CC(C)[C@H](NC(=O)C(=O)Nc1cc(C(C)(C)C)ccc1C(C)(C)C)C(=O)N[C@@H](CC(=O)O)C(=O)COc1c(F)c(F)cc(F)c1F	767000	70600	8230	51300
C[C@H](NC(=O)C(=O)Nc1cccc2c1CCCC2)C(=O)N[C@@H](CC(=O)O)C(=O)COc1c(F)c(F)cc(F)c1F	22000	118000	64100	46200

From ChEMBL document CHEMBL3880422, “C-terminal modified oxamyl dipeptides as inhibitors of the ICE/ced-3 family of cysteine proteases” (2007)
